Key:
[1] = Standard kill-curve and in vitro hollow fiber assay; assay type: cell-based; settings: high concentrations, 0.018-fold-[…] the MIC evaluated
Description: Fluoroquinolone efficacy in humans, animals and in vitro models of infection is linked to AUC:MIC ratio and Cmax:MIC ratio.

[2] = in vivo; settings: Sprague-Dawley, rat, 10 mg/kg
[3] = clinical; settings: human, in vivo
[4] = Aerosol and IV levofloxacin in saline in normal healthy volunteers and CF subjects (serum, sputum, deconvolution); settings: for Mean projected Cmax in the ELF: CF patients, ELF volume 25 ml; for AUC / Cmax / half-life / clearance: human, in vivo; for clearance: Total levofloxacin clearance, serum
Experimental: Safety, tolerability, and pharmacokinetics (serum, sputum, and urinary excretion) data were collected after each dose.
A weight of 1/y-observed was applied in the regression. Goodness of fit was assessed by the minimized objective function and inspection of weighted residual plots. […] Briefly, this analysis compares the appearance and elimination of drug following aerosol and intravenous doses to determine the amount of drug remaining in the lung (absorption compartment) over time. To estimate concentrations of drug in lung, amounts were divided by estimates of the epithelial lung fluid (ELF) volume (25 ml) for each subject. Noncompartmental pharmacokinetic analysis was subsequently applied to these projected concentrations of drug in the lung to determine values for AUC.
The area under the sputum concentration vs. time curve was estimated using the linear trapezoidal rule.

[5] = rat, 10 mg/kg

In the case of `C[C@H]1COc2c(N3CCN(C)CC3)c(F)cc3c(=O)c(C(=O)O)cn1c23` [Levofloxacin, levofloxacin], the “time to reach maximum levels of killing” value [1] is reported as 10 to 20 min, the CL/F ([2]; inhaled or intranasal) is reported as 47.2 mL/min/kg and the Cmax ([2]; inhaled or intranasal) is reported as 6.01 µg/mL. It also gave an MRT ([2]; inhaled or intranasal) of 42.6 min, a bioavailability ([2]; inhaled or intranasal) of 97.4% and a half-life ([2]; inhaled or intranasal) of 31.2 min. For the same compound, the Cmax ([2]; iv) was 5.54 µg/mL, the MRT ([2]; iv) was 42 min and the half-life ([2]; iv) was 29.4 min. For the same compound, the AUC(0-inf) ([3]; iv, 50 mg, Serum AUC(0-inf)) was 3910 ng·h/mL, the Cmax ([3]; iv, 50 mg, Serum Cmax) was 2.55 µg/mL and the half-life ([3]; iv, 50 mg, Serum t1/2, IV 50 mg) was 353 min. For the same compound, the AUC(0-inf) ([3]; iv, 50 mg, Sputum AUC(0-inf)) was 5700 ng·h/mL, the Cmax ([3]; iv, 50 mg, Sputum Cmax) was 1.05 µg/mL and the half-life ([3]; po, 750 mg) was 402 min. It also gave an AUC(0-inf) ([3]; po, 750 mg, Serum AUC(0-inf)) of 76600 ng·h/mL, a Cmax ([3]; po, 750 mg, Serum Cmax) of 7.3 µg/mL and a half-life ([3]; po, 750 mg, Serum t1/2, Oral 750 mg, CF patients) of 456 min. The AUC(0-inf) ([3]; po, 750 mg, Sputum AUC(0-inf)) was 93400 ng·h/mL, the Cmax ([3]; po, 750 mg, Sputum Cmax) was 8.7 µg/mL and the “Mean projected Cmax in the ELF” value ([4]; high dose (RDD 40 mg)) was over 1000 µg/mL. For the same compound, the “Mean projected Cmax in the ELF” value ([4]; low dose (RDD 20 mg)) was “exceeded 500 μg/ml”, the “time for which 50% of the lung dose remains in the lung” value ([4]; CF subjects, aerosol in saline, serum deconvolution) was “at least 0.5 hours” and the “peak sputum concentrations higher than 750 mg oral dose” value ([4]; aerosol doses as low as 20 mg) was 10 fold. For the same compound, the AUC ([4]; 20 mg) was 67100 ng·h/mL, the Cmax ([4]; 20 mg) was 86.2 µg/mL and the half-life ([4]; 20 mg) was 54 min. For the same compound, the AUC ([4]; 40 mg) was 171000 ng·h/mL, the Cmax ([4]; 40 mg) was 212 µg/mL and the half-life ([4]; 40 mg) was 78 min. The clearance ([4]; 50 mg, CF subjects) was 235 mL/min, the clearance ([4]; 50 mg, NHV subjects) was 287 mL/min and the AUC ([4]; iv, 50 mg) was 2500 ng·h/mL. The Cmax ([4]; iv, 50 mg) was 0.8 µg/mL, the AUC ([4]; po, 750 mg) was 93400 ng·h/mL and the Cmax ([4]; po, 750 mg) was 8.7 µg/mL. The “Plasma MAT” value ([5]; Sprague-Dawley, in vivo) was 0.01 h and the “Plasma CL/F” value ([5]; IV, mean (+/- SD)) was 2.81 (±0.54) L/hr/kg.

Reference: patent US10722519B2, “Aerosol fluoroquinolone formulations for improved pharmacokinetics” (priority 2008, dated 2020)
